Test results from PubChem BioAssay AID2060336 (Molecular Pharmacology Branch, DTP, NCI, 2025).
“And” between values parts separate entries of the source, which are not always exact repeats. Equal values may be shown once. Blank lines part the entries; values can stand above or below the molecule they belong to.

Tested on: 958767-090-R-J1-PDC spheroid growth
Experiment: Anticancer human tumor 958767-090-R-J1-PDC patient-derived head and neck squamous carcinoma cell line growth inhibition [IpAb]
Conditions: spheroids with HUVEC and MSC; for viability, T/C: stronger effect = lower value
Text: Combinatorial screen of targeted agents with ipatasertib and abemaciclib in multi-cell type tumor spheroids
A high-throughput screen of multi-cell type tumor spheroids was designed to identify active combinations of targeted small molecules and ipatasertib or abemaciclib. Complex spheroids include a stromal component modeled by human endothelial cells (HUVEC) and fibroblasts modeled by human mesenchymal stem cells (MSCs). The concentration ranges selected for each drug and investigational agent were based upon clinically achievable concentrations if the clinical Cmax of the agent was known.
Compounds. The drugs and investigational agents: ipatasertib (NSC767898), abemaciclib(NSC768073), selumetinib (NSC741078), trametinib (758246), adavosertib (NSC754352), everolimus (NSC733504), sapanisertib (NSC764658), vemurafenib (NSC761431), venetoclax (NSC766270), copanlisib (NSC809693), apelisib (NSC765974), palbociblib (NSC758247), vemurafenib (NSC761431), dabrafenib (NSC764134), ravoxertinib (NSC781343), BMS-387032 (NSC767048), sotorasib (NSC818433), talazoparib (NSC767125) and afursertib (NSC778305), were obtained from the National Cancer Institute (NCI) Developmental Therapeutics Program Chemical Repository. The FDA-approved anticancer drug set is available from the NCI Developmental Therapeutics Program. […] The stock solutions were prepared in dimethyl sulfoxide (DMSO, Sigma-Aldrich, St. Louis, MO, cat. D2650) at 800-fold the tested concentration and stored at -70 degrees C prior to their use. All drugs and investigational agents were tested over a range starting from a high concentration at or near the clinical Cmax and decreasing in half-log increments. If the clinical Cmax for an agent had not been determined, the highest concentration tested was 10 microM.
NCI60 Cell Culture. NCI60 cell lines were obtained from the NCI Developmental Therapeutics Program Tumor Repository. For each lot of cells, the Repository performed Applied Biosystems AmpFLSTR Identifiler testing with PCR amplification to confirm consistency with the published Identifier STR profile for each cell line. Cells were kept in continuous culture for no more than 20 passages. The optimal seeding densities for each of the cell lines at each time point assessed were determined prior to performing the concentration response studies. Briefly, the NCI60 human tumor lines were grown as monolayers in RPMI 1640 medium supplemented with 10% FBS and 2 mmol/L L-glutamine.
An additional 9 lines were from the NCI60 cell line panel including MDA-MB-231 breast carcinoma, MDA-MB-468 breast carcinoma, MCF7 breast carcinoma, Hs578T breast carcinoma, MALME-3M melanoma, SK-MEL-2 melanoma, SK-OV-3 ovarian carcinoma, DU-145 prostate carcinoma, PC-3 prostate carcinoma, all cell lines along with major genetic alterations are listed on Table 2. Pooled donor human umbilical vein endothelial cells (HUVEC, Lonza, cat. CC-2519) and human mesenchymal stem cells (hMSC, Lonza, cat. PT-2501) were purchased from Lonza (Walkersville, MD).
PDMR cell lines were grown in complete medium (DC medium): Dulbecco's modified Eagle's medium (DMEM)/F12 supplemented with 5% fetal bovine serum (FBS), 2 mM L-glutamine, 100 U/mL penicillin and 100 µg/ml streptomycin, 0.4 µg/ml hydrocortisone, 10 ng/ml epidermal growth factor (EGF) recombinant human protein, 24 µg/mL adenine, and 0.1 mg/mL primocin. During culture from frozen stock vials, PDMR cells were cultured in the same medium containing 10 µM Y-27632 (see Table 3). The PDCs were cultured in complete DMEM/F12 media without 10 microM Y-27632 dihydrochloride for at least two passages prior to the screen. The pooled donor HUVEC and hMSC were cultured in endothelial cell growth medium 2 (PromoCell, Heidelberg, Germany, cat. C-22011) and mesenchymal stem cell growth medium 2 (PromoCell, cat. C-28009), respectively. For all experiments, HUVEC and hMSC were used at passages </=5.
[…]
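Also: spheroids exposed to agents for 7 days.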
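For viability, T/C in this document: 100% = DMSO vehicle control wells.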

SMILES: C=CC(=O)N1CCN(c2nc(=O)n(-c3c(C)ccnc3C(C)C)c3nc(-c4c(O)cccc4F)c(F)cc23)C(C)C1 (stereo unspecified)
viability, T/C (compound 0.0316 µM): 99.7% and 95%
viability, T/C (compound 0.1 µM): 93.8% and 88.2%
viability, T/C (compound 0.316 µM): 97.1% and 102%
viability, T/C (compound 1 µM): 94.9% and 107%
viability, T/C (compound 3.16 µM): 83.6% and 75.9%
viability, T/C (compound 10 µM): 39.8%
IC50 (curve of compound): 7660 nM and 7220 nM

SMILES: CC(=O)c1c(C)c2cnc(Nc3ccc(N4CCNCC4)cn3)nc2n(C2CCCC2)c1=O
viability, T/C (compound 0.000949 µM): 76.6% and 103%
viability, T/C (compound 0.003 µM): 66.5% and 83.4%
viability, T/C (compound 0.00949 µM): 62.2% and 75.6%
viability, T/C (compound 0.03 µM): 62.2% and 68.8%
viability, T/C (compound 0.0949 µM): 63.7% and 65.3%
viability, T/C (compound 0.3 µM): 54.1% and 51.8%
IC50 (curve of compound): > 300 nM

SMILES: CC(C)(C)c1cnc(CSc2cnc(NC(=O)C3CCNCC3)s2)o1
viability, T/C (compound 0.00949 µM): 106% and 118%
viability, T/C (compound 0.03 µM): 97% and 116%
viability, T/C (compound 0.0949 µM): 85.4% and 100%
viability, T/C (compound 0.3 µM): 6.79% and 3.17%
viability, T/C (compound 0.949 µM): 2.83% and 2.21%
viability, T/C (compound 3 µM): 2.61% and 2.81%
IC50 (curve of compound): 159 nM and 172 nM

SMILES: CC(C)NCC(C(=O)N1CCN(c2ncnc3c2C(C)CC3O)CC1)c1ccc(Cl)cc1 (stereo unspecified)
viability, T/C (compound 0.1 µM): 90.6% [middle of 13 runs]
viability, T/C (compound 1 µM): 50.7% [middle of 13 runs]

SMILES: CC(C)n1nc(-c2ccc3oc(N)nc3c2)c2c(N)ncnc21
viability, T/C (compound 0.000316 µM): 84.9% and 95.3%
viability, T/C (compound 0.001 µM): 89.9% and 94.5%
viability, T/C (compound 0.00316 µM): 74.5% and 73.8%
viability, T/C (compound 0.01 µM): 55.9% and 54.9%
viability, T/C (compound 0.0316 µM): 36.9% and 34.2%
viability, T/C (compound 0.1 µM): 39.7% and 32.1%
IC50 (curve of compound): 13.9 nM and 11.9 nM

SMILES: CC1(C)CCC(CN2CCN(c3ccc(C(=O)NS(=O)(=O)c4ccc(NCC5CCOCC5)c([N+](=O)[O-])c4)c(Oc4cnc5[nH]ccc5c4)c3)CC2)=C(c2ccc(Cl)cc2)C1
viability, T/C (compound 0.0316 µM): 79.8% and 92%
viability, T/C (compound 0.1 µM): 86.8% and 104%
viability, T/C (compound 0.316 µM): 90.3% and 99%
viability, T/C (compound 1 µM): 93.9% and 100%
viability, T/C (compound 3.16 µM): 105% and 112%
viability, T/C (compound 10 µM): 5.27% and 4.22%
IC50 (curve of compound): 5490 nM and 5830 nM

SMILES: CCN1CCN(Cc2ccc(Nc3ncc(F)c(-c4cc(F)c5nc(C)n(C(C)C)c5c4)n3)nc2)CC1
viability, T/C (compound 0.1 µM): 63.6% [middle of 13 runs]
viability, T/C (compound 1 µM): 80.7% [middle of 12 runs]
IC50 (compound alone, run of 06/01/2021): > 1000 nM

SMILES: COc1c(OCCCN2CCOCC2)ccc2c3n(c(=NC(=O)c4cnc(N)nc4)nc12)CCN3
viability, T/C (compound 0.00316 µM): 64.4% and 71.9%
viability, T/C (compound 0.01 µM): 50% and 60.7%
viability, T/C (compound 0.0316 µM): 34.6% and 39.4%
viability, T/C (compound 0.1 µM): 15.9% and 25.2%
viability, T/C (compound 0.316 µM): 8.95% and 9.82%
viability, T/C (compound 1 µM): 4.88% and 4.05%
IC50 (curve of compound): 10.7 nM and 18.2 nM

SMILES: Cc1nc(NC(=O)N2CCCC2C(N)=O)sc1-c1ccnc(C(C)(C)C(F)(F)F)c1 (stereo unspecified)
viability, T/C (compound 0.0316 µM): 85.3% and 75%
viability, T/C (compound 0.1 µM): 68.5% and 71.4%
viability, T/C (compound 0.316 µM): 48.5% and 42.7%
viability, T/C (compound 1 µM): 32.3% and 36.4%
viability, T/C (compound 3.16 µM): 22.2% and 22.6%
viability, T/C (compound 10 µM): 9.48% and 9.72%
IC50 (curve of compound): 304 nM and 311 nM

The next lines start with results.

IC50 (curve of compound): 195 nM and 344 nM
SMILES: C=CCn1c(=O)c2cnc(Nc3ccc(N4CCN(C)CC4)cc3)nc2n1-c1cccc(C(C)(C)O)n1
viability, T/C (compound 0.0316 µM): 86.2% and 89.5%
viability, T/C (compound 0.1 µM): 72.7% and 72.8%
viability, T/C (compound 0.316 µM): 33.4% and 47.7%
viability, T/C (compound 1 µM): 27.7% and 37.4%
viability, T/C (compound 3.16 µM): 25% and 28.7%
viability, T/C (compound 10 µM): 21.1% and 20.1%

IC50 (curve of compound): > 10000 nM
SMILES: CCCS(=O)(=O)Nc1ccc(F)c(C(=O)c2c[nH]c3ncc(-c4ccc(Cl)cc4)cc23)c1F
viability, T/C (compound 0.0316 µM): 86.3% and 103%
viability, T/C (compound 0.1 µM): 93.5% and 92.7%
viability, T/C (compound 0.316 µM): 92.7% and 98.5%
viability, T/C (compound 1 µM): 94.9% and 96%
viability, T/C (compound 3.16 µM): 98.5% and 96.4%
viability, T/C (compound 10 µM): 65.5% and 66.7%

IC50 (curve of compound): 28.4 nM and 43.7 nM
SMILES: Cn1cnc2c(F)c(Nc3ccc(Br)cc3Cl)c(C(=O)NOCCO)cc21
viability, T/C (compound 0.00949 µM): 73% and 64.2%
viability, T/C (compound 0.03 µM): 48.8% and 52.3%
viability, T/C (compound 0.0949 µM): 32.5% and 42.5%
viability, T/C (compound 0.3 µM): 30.8% and 35.8%
viability, T/C (compound 0.949 µM): 31% and 28.7%
viability, T/C (compound 3 µM): 17.2% and 19.8%

IC50 (curve of compound): 1540 nM and 837 nM
SMILES: Cn1ncc(Cl)c1-c1cc(C(=O)NC(CN)Cc2cccc(F)c2)sc1Cl (stereo unspecified)
viability, T/C (compound 0.0316 µM): 81.8% and 95%
viability, T/C (compound 0.1 µM): 73.2% and 88.4%
viability, T/C (compound 0.316 µM): 68.2% and 60.5%
viability, T/C (compound 1 µM): 57.1% and 44.8%
viability, T/C (compound 3.16 µM): 39% and 31.4%
viability, T/C (compound 10 µM): 0.18% and 0.23%

IC50 (curve of compound): 2000 nM and 2910 nM
SMILES: Cn1nccc1Nc1nccc(-c2ccn(C(CO)c3ccc(Cl)c(F)c3)c(=O)c2)n1 (stereo unspecified)
viability, T/C (compound 0.0316 µM): 92.1% and 96.5%
viability, T/C (compound 0.1 µM): 72.6% and 82.8%
viability, T/C (compound 0.316 µM): 71.3% and 72.6%
viability, T/C (compound 1 µM): 55.1% and 69.1%
viability, T/C (compound 3.16 µM): 54.4% and 50%
viability, T/C (compound 10 µM): 21.6% and 26.4%

IC50 (curve of compound): > 100 nM
SMILES: Cn1ncnc1[C@H]1c2n[nH]c(=O)c3cc(F)cc(c23)N[C@@H]1c1ccc(F)cc1
viability, T/C (compound 0.000316 µM): 123% and 91.8%
viability, T/C (compound 0.001 µM): 81.7% and 109%
viability, T/C (compound 0.00316 µM): 80.4% and 90.1%
viability, T/C (compound 0.01 µM): 73.3% and 91.3%
viability, T/C (compound 0.0316 µM): 79.7% and 80.1%
viability, T/C (compound 0.1 µM): 70.6% and 68.1%
